Measured values from patent US20240376097A1, “BCL-2 Inhibitor” (BeiGene Ltd., priority 2020, published 2024).

Columns and labels:
[1] = system: BCL-2 G101V knock-in cell line H96 (derive from RS4;11); test: Bcl 2-G101V Knock-In RS4;11 Cell Proliferation Assay; type: cell-based; conditions: Homo sapiens, RS4-11, 48 h, RS4;11 Bcl-2 G101V knock-in clone H96, 48 hrs, CellTiter-GLO, read-out: Cellular proliferation assay (IC50, nM) RS4
Method in brief: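 H96, a CRISPR-generated RS4;11 clone carrying BCL2-G101V knock-in (WES/RNA-seq validated), seeded 50,000 per well and exposed 48 h at 37 °C to 10-point dilutions topping at 1 or 10 μM. Viability by CellTiter-Glo luminescence; mean IC50.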

[2] = Metabolic Stability Study, liver microsome incubation (human); type: in vitro ADME; conditions: human liver microsomes 0.5 mg/mL, 1 μM compound, NADPH; for half-life at 1 μM: NA^# = very stable, beyond the detection limits, read-out: T1/2 (min) Human; for microsomal CLint at 1 μM: read-out: CLint (μL × min^−1 × mg^−1) Human
Method in brief: (§1)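 Test compounds (1 μM) incubated at 37° C with 0.5 mg/mL liver microsomes plus NADPH regenerating system; samples quenched at 0, 30 and 60 min. Parent loss measured by LC-MS/MS, giving CLint and T1/2, with CLint normalised to microsomal protein concentration.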

[3] = system: RS4;11 (BCL-2 dependent acute lymphoblastic leukemia cell line); test: RS4;11 Cell Proliferation Assay; type: cell-based; conditions: Homo sapiens, RS4;11 cells, read-out: Cellular proliferation assay (IC50, nM) RS4
Method in brief: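 RS4;11 cells, 50,000 per well in RPMI-1640 with 10% FBS, treated 48 h at 37 °C with a 10-point dilution series topping at 1 μM. Viability read by CellTiter-Glo ATP luminescence; mean IC50 reported.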

[4] = target: recombinant human Bcl-2 D103Y protein (Homo sapiens (Human), UniProt P10415, D103Y); test: Bcl-2-D103Y Biochemical Assay (TR-FRET); type: binding; conditions: for IC50: TR-FRET, FITC labeled Bak peptide; for Ratio of Bcl-2 D103Y/Bcl-2 WT: ratio of IC50
recombinant human Bcl-2 D103Y protein, sequence (P10415 whole entry D103Y): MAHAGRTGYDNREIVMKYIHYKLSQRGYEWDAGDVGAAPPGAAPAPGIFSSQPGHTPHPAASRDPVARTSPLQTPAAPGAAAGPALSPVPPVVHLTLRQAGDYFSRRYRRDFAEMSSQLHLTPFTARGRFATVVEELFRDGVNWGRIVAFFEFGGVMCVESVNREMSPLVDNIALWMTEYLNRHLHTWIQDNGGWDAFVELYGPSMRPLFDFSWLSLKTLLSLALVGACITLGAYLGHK
Method in brief: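 Recombinant human Bcl-2 D103Y binding to its ligand measured by TR-FRET (ex 337 nm, em 490/520 nm) with increasing compound concentrations. Percent inhibition from the 490/520 nm ratio; IC50 from four-parameter logistic fit.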

[5] = Metabolic Stability Study, liver microsome incubation (mouse); type: in vitro ADME; conditions: mouse liver microsomes 0.5 mg/mL, 1 μM compound, NADPH; for half-life at 1 μM: NA^# = very stable, beyond the detection limits, read-out: T1/2 (min) mouse; for microsomal CLint at 1 μM: read-out: CLint (μL × min^−1 × mg^−1) mouse
Method in brief: as §1

| SMILES | IC50 [1] [nM] | half-life at 1 μM [2] [min] | microsomal CLint at 1 μM [2] [µL/min/mg] | IC50 [3] [nM] | IC50 [4] [nM] | Ratio of Bcl-2 D103Y/Bcl-2 WT [4] | half-life at 1 μM [5] [min] | microsomal CLint at 1 μM [5] [µL/min/mg] |
| --- | --- | --- | --- | --- | --- | --- | --- | --- |
| COc1cc(CN2CCN(C3CC4(C3)CN(c3ccc(C(=O)NS(=O)(=O)c5ccc(NC[C@H]6CC[C@](C)(O)CC6)c([N+](=O)[O-])c5)c(Oc5cnc6[nH]cc(F)c6c5)c3)C4)[C@H](c3ccccc3C(C)C)C2)ccc1OC1CC1 [Example 321, 4-(6-((R)-4-(4-cyclopropoxy-3-methoxybenzyl)-2-(2-isopropylphenyl)piperazin-1-yl)-2-azaspiro[3.3]heptan-2-yl)-2-((3-fluoro-1H-pyrolo[2,3-b]pyridin-5-yl)oxy)-N-((4-((((1r,4r)-4-hydroxy-4-methylcyclohexy)methyl)amino)-3-nitrophenyl)sulfonyl)benzamide] | 0.24 | 1020 | 1.4 | 0.22 | 0.14 | 0.79 | 628 | 2.2 |
| COc1cc(CN2CCN(C3CC4(C3)CN(c3ccc(C(=O)NS(=O)(=O)c5ccc(NC[C@H]6CC[C@](C)(O)CC6)c([N+](=O)[O-])c5)c(Oc5cnc6[nH]cc(F)c6c5)c3)C4)[C@H](c3ccccc3C(C)C)C2)cc2cc(C)oc12 [Example 338, 2-((3-fluoro-1H-pyrrolo[2,3-b]pyridin-5-yl)oxy)-N-((4-((((1r,4r)-4-hydroxy-4-methylcyclohexyl)methyl)amino)-3-nitrophenyl)sulfonyl)-4-(6-((R)-2-(2-isopropylphenyl)-4-((7-methoxy-2-methylbenzofuran-5-yl)methyl)piperazin-1-yl)-2-azaspiro[3.3]heptan-2-yl)benzamide] | 0.15 | 659 | 2.1 | 0.11 | 1 | 1.7 | 538 | 2.6 |
| COc1cc(CN2CCN(C3CC4(C3)CN(c3ccc(C(=O)NS(=O)(=O)c5ccc(NC[C@H]6CC[C@](C)(O)CC6)c([N+](=O)[O-])c5)c(Oc5cnc6[nH]cc(F)c6c5)c3)C4)[C@H](c3ccccc3C(C)C)C2)ccc1N1CCOCC1 [Example 361, 2-((3-fluoro-1H-pyrrolo[2,3-b]pyridin-5-yl)oxy)-N-((4-((((1r,4r)-4-hydroxy-4-methylcyclohexyl)methyl)amino)-3-nitrophenyl)sulfonyl)-4-(6-((R)-2-(2-isopropylphenyl)-4-(3-methoxy-4-morpholinobenzyl)piperazin-1-yl)-2-azaspiro[3.3]heptan-2-yl) benzamide] | 0.13 |  | < 1 | 0.09 | 0.079 | 1.6 | 273 | 5.1 |
